Results taken from patent US9937235B2, “Lipidated peptides as anti-obesity agents” (USTAV ORGANICKE CHEMIE A BIOCHEMIE AKADEMIE VED CR, V.V.I, priority 2012, dated 2018).
Where a SMILES comes first, the peptide text is derived from it. Where no end group is shown, it is not given here. [ ]: non-standard residue; d: D form. The star is where a group is joined. 1Nal = N[C@@H](Cc1cccc2ccccc12)C(=O)O; Myristoyl = CCCCCCCCCCCCCC(=O)*; Nle = CCCC[C@H](N)C(=O)O; Octanoyl = CCCCCCCC(=O)*; Dap = NC[C@H](N)C(=O)O

Tests used:
[1] = system: fasted C57BL/6 mice; test: Food intake in fasted mice after SC administration; assay type: in vivo, mouse; details: for food intake / % control: SC administration; for % control: food intake vs saline
How it was run: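 Male C57BL/6 mice, food-deprived 17 h, received saline, PrRP or lipidated analogs either SC at 1-10 mg/kg or ICV into the third ventricle at 4 nmol/mouse.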

[2] = biological target: T1, rat PrRP receptor (GPR10) in RC-4B/C cells (Rattus norvegicus, UniProt Q64121); test: Competitive binding to rat pituitary RC-4B/C cells; details: ^125I-rat PrRP31, RC-4B/C cells
T1 construct: host or cells: RC-4B/C rat pituitary cell line
T1 sequence (Q64121 1-370): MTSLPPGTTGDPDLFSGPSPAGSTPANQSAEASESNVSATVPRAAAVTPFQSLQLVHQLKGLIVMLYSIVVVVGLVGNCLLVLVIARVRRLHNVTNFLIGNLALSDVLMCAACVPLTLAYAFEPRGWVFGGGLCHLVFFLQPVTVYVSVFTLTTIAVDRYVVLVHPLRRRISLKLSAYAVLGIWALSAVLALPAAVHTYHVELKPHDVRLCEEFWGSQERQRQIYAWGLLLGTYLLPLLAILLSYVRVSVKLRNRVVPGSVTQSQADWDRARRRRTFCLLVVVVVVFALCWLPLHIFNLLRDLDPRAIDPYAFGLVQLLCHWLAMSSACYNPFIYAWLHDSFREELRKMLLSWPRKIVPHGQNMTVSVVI

[3] = system: MAPK/ERK1/2 signaling pathway in RC-4B/C cells; test: MAPK/ERK1/2 signaling in RC-4B/C cells (Western blot); assay type: cell-based, rat; details: 10^−6 mol·l^−1, 5 minute incubation
Description: RC-4B/C cells, which were used to determine if lipidated PrRP20 analogs are able to initiate the MAPK/ERK1/2 signaling pathway, were grown in 6-well plates up to the optimal density of […]. Seventeen hours before sample harvest, the growth medium was replaced by a serum-free medium lacking epidermal growth factor (EGF). The respective lipidated PrRP analog was added to each well in the final concentration of 10^−6 mol·l^−1. After a 5 minute incubation at 37° C., the plate was placed on ice and each well was rinsed three times with PBS pH 7.4 (137 mmol·l^−1 NaCl, 2.7 mmol·l^−1 KCl, 8 mmol·l^−1 Na2HPO4.2H2O a 1.76 mmol·l^−1 KH2PO4) and cooled to 4° C. […] Samples were collected in at least three independent experiments.
To determine if the lipidated PrRP20 analogs initiated the MAPK/ERK1/2 signaling pathway, Western blot analysis was used. Electrophoresis was performed on 5%/12% polyacrylamide gel in the presence of SDS (SDS-PAGE) on the instrument MiniProtean 3 (BioRad, Herkules, Calif., USA). Samples that were loaded on the gel were first disintegrated by ultrasound, then heated at 100° C. for 2 minutes, and centrifuged for 5 minutes at 500×g at room temperature. […] Electrophoresis was performed at a constant voltage of 100 V for 10 minutes, or for 60 minutes at 150 V.
To show the presence of phosphorylated proteins in the samples, the proteins from the SDS-PAGE gel were transferred to the Immobilon™-P PVDF (polyvinylidene difluoride) membrane (Sigma-Aldrich, USA). The transfer was performed in blotting buffer at pH 8.3 (25 mmol·l^−1 Tris, 192 mmol·l^−1 glycine and 20% methanol) for 20 hours at 4° C. at a constant voltage of 30 V.
After the protein transfer to the PVDF membrane, the membranes were washed for 5 minutes in TBS washing buffer (20 mmol·l^−1 Tris, 140 mmol·l^−1 NaCl and 0.1% Tween-20) and then incubated for 1 hour in blocking buffer (TBS with 5% non-fat milk powder and 5 mmol·l^−1 Na3VO4 and 50 mmol·l^−1 NaF) at room temperature. Further, the membranes were washed three times for 5 minutes using the TBS washing buffer. The membranes were then incubated with the primary antibody against phospho-p44/42 MAPK(Thr202/Tyr204) (Cell Signaling Technology, Beverly, USA) which was diluted in blocking buffer at 1:1000. After the next three washes with the TBS washing buffer for 5 minutes, the membranes were incubated for 1 hour with rabbit secondary antibody labeled with peroxidase (Sigma, St. Louis, USA) which was diluted in blocking buffer at 1:12,000.
The membranes were then washed three times in TBS washing buffer for 5 minutes and then the solution Femto (Pierce SuperSignal, Thermo Fisher Scientific, Rockford, Ill., USA) was applied. The induced chemiluminiscence was detected by a CCD camera (LAS 3000, Fuji Photo Film GmBH, Düsseldorf, Germany).
To assess the initiation of signaling pathways, a densitometric analysis using the program Quantity One (BioRad, Hercules, Calif., USA) was used. For statistical evaluation of the statistically significant response of the cellular signaling, one-way ANOVA with subsequent Dunnett post-hoc test was used. Data was statistically significant at P<0.05.

[4] = system: fasted C57BL/6 mice; test: Food intake in fasted mice after ICV administration; assay type: in vivo; details: 4 nmol/mouse; for % control: food intake vs saline
Description: Male C57BL/6 mice (An Lab, Prague 4) were bred in the accredited animal facility in the Institute of Organic Chemistry and Biochemistry, Czech Academy of Sciences, Prague, at the Institute of Molecular Genetics, Prague 4, at the temperature of 22±2° C. with access to food and water ad libitum. The day/night cycle was 12/12 hours (light turned on at 6:00 am). Animals were treated according to the Animal Protection Act (Act No. 246/1992). The males were fed standard chow diet St-1 (Mlýn Kocanda, Praha, Czech Republic) which contained 66% saccharides, 25% proteins and 9% lipids with a caloric value of 3.4 kcal/g.
The food was withdrawn 17 hours prior to injection of lipidated peptide and free access to water was maintained. The administration of saline, PrRP or lipidated analogs was performed either by SC injection at doses of 1-10 mg/kg (volume 0.2 ml/mouse), or by ICV using infusion pump (cannulae were inserted into the third brain ventricle 4 days before the experiment following the procedure of Maixnerová et al. (Maixnerová et al., 2011)). The single dose of peptide was 4 nmol/mouse (5 μl/mouse).
Fifteen minutes after the lipidated peptide administration, the mice were given pre-weighed food. The food was then weighed every 30 minutes for 5-10 hours. The administration of every dose was performed at least twice and one group of mice consisted of at least 6 mice. The results were presented as % of food intake as compared with the control group injected with saline.
Statistical evaluation was performed using program Graph-Pad Prism Software (San Diego, Calif., USA), and the one-way ANOVA with a subsequent Dunnettovým post-hoc test. The difference in food intake between mice injected with saline and mice injected with the examined peptide were considered statistically significant at P<0.05.

[5] = 45 minutes, dose not stated for these substances
[6] = 300 minutes, dose not stated for these substances

Compound	food intake ([1]; 45 minutes, 10 mg/kg) [g]	% control ([1]; 45 minutes, 10 mg/kg) [%]	food intake ([1]; 300 minutes, 10 mg/kg) [g]	% control ([1]; 300 minutes, 10 mg/kg) [%]	% of PrRP31 binding [2] [%]	ERK signaling [3]	food intake ([4]; 45 minutes) [g]	% control ([4]; 45 minutes) [%]	food intake ([4]; 300 minutes) [g]	% control ([4]; 300 minutes) [%]	food intake [1, 5] [g]	% control [1, 5] [%]	food intake [1, 6] [g]	% control [1, 6] [%]	dose dependence of the lowering of food intake ([1]; SC administration, 1, 2, 5 and 10 mg/kg, FIG. 5 and 6)
CCCC[C@H](NC(=O)[C@H](CO)NC(=O)[C@H](Cc1c[nH]cn1)NC(=O)[C@H](CCC(N)=O)NC(=O)[C@H](Cc1c[nH]cn1)NC(=O)[C@H](C)NC(=O)[C@H](CCCNC(=N)N)NC(=O)[C@@H](N)CN)C(=O)N[C@@H](CCC(=O)O)C(=O)N[C@H](C(=O)N[C@@H](CCCNC(=N)N)C(=O)N[C@H](C(=O)N1CCC[C@H]1C(=O)N[C@@H](CC(=O)O)C(=O)N[C@H](C(=O)N[C@@H](CC(N)=O)C(=O)N1CCC[C@H]1C(=O)N[C@@H](C)C(=O)N[C@@H](Cc1c[nH]c2ccccc12)C(=O)N[C@@H](Cc1ccc(O)cc1)C(=O)N[C@H](C(=O)NCC(=O)N[C@@H](CCCNC(=N)N)C(=O)NCC(=O)N[C@H](C(=O)N[C@@H](CCCNC(=N)N)C(=O)N1CCC[C@H]1C(=O)N[C@H](C(=O)NCC(=O)N[C@@H](CCCNC(=N)N)C(=O)N[C@@H](Cc1ccccc1)C(N)=O)C(C)C)[C@@H](C)CC)[C@@H](C)O)[C@@H](C)CC)[C@@H](C)O)[C@@H](C)O [Analog 1] (H-[Dap]RAHQHS[Nle]ETRTPDINPAWYTGRGIRPVGRF-NH2)	0.38	117	1.05	97	132	agonist	0.39	70	0.71	53	–	–	–	–	–
CCCCCCCC(=O)NC[C@H](N)C(=O)N[C@@H](CCCNC(=N)N)C(=O)N[C@@H](C)C(=O)N[C@@H](Cc1c[nH]cn1)C(=O)N[C@@H](CCC(N)=O)C(=O)N[C@@H](Cc1c[nH]cn1)C(=O)N[C@@H](CO)C(=O)N[C@@H](CCCC)C(=O)N[C@@H](CCC(=O)O)C(=O)N[C@H](C(=O)N[C@@H](CCCNC(=N)N)C(=O)N[C@H](C(=O)N1CCC[C@H]1C(=O)N[C@@H](CC(=O)O)C(=O)N[C@H](C(=O)N[C@@H](CC(N)=O)C(=O)N1CCC[C@H]1C(=O)N[C@@H](C)C(=O)N[C@@H](Cc1c[nH]c2ccccc12)C(=O)N[C@@H](Cc1ccc(O)cc1)C(=O)N[C@H](C(=O)NCC(=O)N[C@@H](CCCNC(=N)N)C(=O)NCC(=O)N[C@H](C(=O)N[C@@H](CCCNC(=N)N)C(=O)N1CCC[C@H]1C(=O)N[C@H](C(=O)NCC(=O)N[C@@H](CCCNC(=N)N)C(=O)N[C@@H](Cc1cccc2ccccc12)C(N)=O)C(C)C)[C@@H](C)CC)[C@@H](C)O)[C@@H](C)CC)[C@@H](C)O)[C@@H](C)O [Analog 8] (H-[Dap](Octanoyl)RAHQHS[Nle]ETRTPDINPAWYTGRGIRPVGR[1Nal]-NH2)	–	–	–	–	13	agonist	0.34	60	1.05	79	0.17	76	0.78	90	–
TPDINPAWYTGRGIRPVGRF-NH2 [PrRP20, reference compound]	–	–	–	–	143	agonist	0.32	68	1.29	100	0.32	100	1.1	100	–
CCCCCCCCCCCCCC(=O)NC[C@H](N)C(=O)N[C@@H](CCCNC(=N)N)C(=O)N[C@@H](C)C(=O)N[C@@H](Cc1c[nH]cn1)C(=O)N[C@@H](CCC(N)=O)C(=O)N[C@@H](Cc1c[nH]cn1)C(=O)N[C@@H](CO)C(=O)N[C@@H](CCCC)C(=O)N[C@@H](CCC(=O)O)C(=O)N[C@H](C(=O)N[C@@H](CCCNC(=N)N)C(=O)N[C@H](C(=O)N1CCC[C@H]1C(=O)N[C@@H](CC(=O)O)C(=O)N[C@H](C(=O)N[C@@H](CC(N)=O)C(=O)N1CCC[C@H]1C(=O)N[C@@H](C)C(=O)N[C@@H](Cc1c[nH]c2ccccc12)C(=O)N[C@@H](Cc1ccc(O)cc1)C(=O)N[C@H](C(=O)NCC(=O)N[C@@H](CCCNC(=N)N)C(=O)NCC(=O)N[C@H](C(=O)N[C@@H](CCCNC(=N)N)C(=O)N1CCC[C@H]1C(=O)N[C@H](C(=O)NCC(=O)N[C@@H](CCCNC(=N)N)C(=O)N[C@@H](Cc1cccc2ccccc12)C(N)=O)C(C)C)[C@@H](C)CC)[C@@H](C)O)[C@@H](C)CC)[C@@H](C)O)[C@@H](C)O [Analog 9] (H-[Dap](Myristoyl)RAHQHS[Nle]ETRTPDINPAWYTGRGIRPVGR[1Nal]-NH2)	0.01	2	0.22	25	167	agonist	0.28	51	1.03	78	–	–	–	–	dose dependent
